Data set [1] in a line: Nasal tissue penetration, Franz type permeation cell, CLSM. The format is in vitro ADME, bovine. Conditions: CF loaded, 1 hour incubation, 37° C. The protocol:
To investigate the ability of the TPGS:DDA:SPC liposomes of Example 1 to cross nasal mucosa and penetrate into bovine nasal tissue fresh bovine nasal tissues were collected from freshly slaughtered animals. The mucosal tissue was removed and preserved in Krebs Bicarbonate Ringer (KBR) buffer pH 7.4. Liposome penetration studies were performed immediately to maintain the viability of the cells tissue being used. A Franz type permeation cell was used in this study; the recipient compartment filled with KBR buffer and stirred constantly. The temperature of the Franz cell was maintained at 37° C. with jacketed water flow. A 1.5 cm^2 tissue section was inserted between the recipient and donor compartments and 0.5 ml of reconstituted liposomal dispersion or free carboxyfluorescein (CF) solutions containing an equivalent amount of CF were loaded into the donor compartment, and left for 1 hour incubation. The tissues were then washed with KBR buffer and frozen in optimal cutting temperature compound at −80° C. for cryosection. Samples of 10 μm thickness were obtained using a cryostat (MICROM HM 550). Propidium iodide (PI) solution was used to stain the cell nuclei and cryosectioned tissues were mounted in glycerol containing 1,4-phenylenediamine (0.1 g/l). Penetration was observed using confocal laser scanning microscopy (CLSM). […]

The subject of data set [2] is human lung epithelial cell line L-132. Description: Cell uptake of CF-loaded liposomal formulations (fluorometry, flow cytometry, CLSM). Conditions: L-132 cells, 0.5-2 h at 37° C., 1:100 dilution. It counts as cell-based. The procedure:
Cells from the human lung epithelial cell line L-132 were cultured in MEM medium containing Earle's salts and L-glutamine and supplemented with 10% fetal calf serum (FCS), under standard conditions at 37° C. with 5% CO2 and 95% air. To validate the fluorimetric analysis, a standard curve was created during each assay. To perform the fluorometric assay cells were seeded at 25×10^4 cells/well onto 24-well plates (total volume was 1 ml/well). Twenty four hours later, the culture medium was removed. The formulations were added to the cells in 1:100 dilution in MEM medium (10 μl of liposomes suspension+990 μl medium) and incubated for 0.5-2 h at 37° C. Following incubation cells were washed two times with cold PBS to end the uptake experiment. Then the washed cells were lysed with 0.2% Triton X-100 in 0.2 N NaOH (1.0 ml/well) for 0.5-1 hour at room temperature. Aliquots from each well were transferred into 96-well plates. The cell fluorescence intensity was determined using a microplate fluorometer at an excitation wavelength of 485 nm and emission wavelength of 520 nm and Gain level set to 800 in the software (FIG. 4). […] The cells were kept on ice and analysized by flow cytometry using a FACscan flow cytometer for cell-associated CF fluorescence. The mean fluorescence intensity of cells was determined for each sample (FIG. 5). […]
On the technique in general: Flow cytometry measures light scatter and fluorescence of single cells or particles in a stream.

Data set [3] is described as follows: In vitro release of BSA from liposomes, dialysis method. It counts as physicochemical. Conditions: free BSA, 4 h, 37° C., PBS pH 7.4. The protocol:
in vitro release experiments of BSA from liposomes were performed at 37°±0.5° C. using the dialysis method under constant shaking (60 rpm). A 10 ml of phosphat buffered saline (PBS) pH 7.4 was used to test for the drug release for 48 h. Dialysis bags (Spectra/Por Biotech Cellulose Ester Dialysis Membrane MWCO: 300,000 Spectrum Ls Rancho Dominguez, Calif., USA) containing 500 μl liposomes were introduced into the system. All of the release media was withdrawn and replaced with the same volume of fresh medium at designated time points to maintain sink conditions. The sampled medium (1.0 ml out of 10 ml) was mixed with Bradford's reagent and the absorbance was measured as described in the method for determination of encapsulation efficiency. The concentration of the BSA released from the liposomes was calculated from the obtained linear calibration curve (r≧0.99) as previously described in the method for determination of encapsulation efficiency.

With carboxyfluorescein [free CF], the “penetration into bovine nasal tissue (CLSM)” value in data set [1] is recorded as “completely washed out”. Further, the “amount of CF incorporated into cells” value in data set [2] is recorded as “free CF<CF-loaded SPC liposomes <CF-loaded TPGS:DDA:SPC liposomes”. In the case of bovine serum albumin [free BSA], in data set [3], the “cumulative release of BSA” value came out at 46.6±2.6%.

These data come from patent publication US20150079156A1, “LIPOSOMAL DELIVERY SYSTEM” (THE QUEEN'S UNIVERSITY OF BELFAST, priority 2012, published 2015).
